pIC50: −log10 of the molar value.
Experiments:
GABAA receptor subtypes = assay: FLIPR calcium flux, all 18 subtypes taken together; assay type: cell-based; conditions: 18 subtypes tested
Experimental: (§1) Cells expressing the indicated GABAA receptor subtype were exposed to gamma-aminobutyric acid in the presence of varying concentrations of either CV-10155 or SPNC-019, calcium flux was measured using a fluorometric imaging plate reader (FLIPR), and EC50 values for compounds were determined.
The results further indicate that the isomeric purity of compositions containing compounds of Formula (I) greatly impacts the utility of such compositions as therapeutic agents.

α4β3δ GABAA receptor [1] = target: T1, α4β3δ GABAA receptor (Homo sapiens, UniProt O14764+P28472+P48169); assay: FLIPR calcium flux, modulation of GABA response; assay type: cell-based; set-up: expressed in transfected cells; conditions: comparison of Example 1 data
T1 sequence (P48169 36-554): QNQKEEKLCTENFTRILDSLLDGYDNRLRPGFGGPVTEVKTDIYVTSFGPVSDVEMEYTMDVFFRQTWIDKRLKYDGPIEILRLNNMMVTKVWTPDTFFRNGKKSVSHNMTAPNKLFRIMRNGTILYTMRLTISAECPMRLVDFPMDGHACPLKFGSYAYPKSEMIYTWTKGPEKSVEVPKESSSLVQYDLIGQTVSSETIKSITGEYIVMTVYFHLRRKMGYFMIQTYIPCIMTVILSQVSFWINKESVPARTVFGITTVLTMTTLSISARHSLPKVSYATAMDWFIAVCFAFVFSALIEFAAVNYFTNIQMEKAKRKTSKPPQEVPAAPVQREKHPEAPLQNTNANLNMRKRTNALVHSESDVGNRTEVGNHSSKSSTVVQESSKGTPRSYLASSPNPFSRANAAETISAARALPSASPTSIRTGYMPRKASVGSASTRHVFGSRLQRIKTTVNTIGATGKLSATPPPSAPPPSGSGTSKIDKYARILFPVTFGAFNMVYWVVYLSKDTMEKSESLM
T1 sequence (P28472 26-473): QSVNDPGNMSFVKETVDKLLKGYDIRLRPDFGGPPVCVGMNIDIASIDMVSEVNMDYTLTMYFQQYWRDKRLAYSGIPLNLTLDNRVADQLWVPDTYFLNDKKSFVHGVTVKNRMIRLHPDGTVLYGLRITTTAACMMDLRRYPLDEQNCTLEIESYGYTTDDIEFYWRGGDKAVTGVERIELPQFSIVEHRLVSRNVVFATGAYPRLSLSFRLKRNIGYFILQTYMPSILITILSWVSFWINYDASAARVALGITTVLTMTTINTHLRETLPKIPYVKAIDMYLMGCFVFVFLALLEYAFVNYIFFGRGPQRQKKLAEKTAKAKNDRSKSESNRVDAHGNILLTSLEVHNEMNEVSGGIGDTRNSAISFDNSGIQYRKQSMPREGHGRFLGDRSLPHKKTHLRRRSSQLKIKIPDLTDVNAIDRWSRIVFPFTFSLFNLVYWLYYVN
T1 sequence (O14764 25-452): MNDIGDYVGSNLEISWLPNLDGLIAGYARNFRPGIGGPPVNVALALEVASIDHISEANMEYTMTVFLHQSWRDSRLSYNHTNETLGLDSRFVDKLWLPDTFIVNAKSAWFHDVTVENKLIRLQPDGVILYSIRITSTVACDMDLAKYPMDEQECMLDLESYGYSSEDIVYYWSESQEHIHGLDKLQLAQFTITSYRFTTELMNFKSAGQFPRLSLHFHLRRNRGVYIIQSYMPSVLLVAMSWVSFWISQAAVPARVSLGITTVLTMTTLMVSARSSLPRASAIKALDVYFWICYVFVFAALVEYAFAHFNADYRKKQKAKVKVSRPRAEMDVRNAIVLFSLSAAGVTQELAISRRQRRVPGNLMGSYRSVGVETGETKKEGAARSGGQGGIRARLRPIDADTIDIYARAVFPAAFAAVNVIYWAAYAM
Experimental: as §1

[2] = target: picrotoxin binding site of GABAA receptors; conditions: membranes from cortices of rat brains; read-out: IC50 in the TBPS displacement assay; cited from earlier work
α1β2γ2 GABAA receptors = target: T2, α1β2γ2 GABAA receptors (Homo sapiens, UniProt P14867+P18507+P47870); conditions: 10 μM steroid, GABA 2 μM (EC20), LTK cells; cited from earlier work
T2 construct: expressed in transfected cells; host or cells: LTK cells, stably transfected
T2 sequence (P14867 28-456): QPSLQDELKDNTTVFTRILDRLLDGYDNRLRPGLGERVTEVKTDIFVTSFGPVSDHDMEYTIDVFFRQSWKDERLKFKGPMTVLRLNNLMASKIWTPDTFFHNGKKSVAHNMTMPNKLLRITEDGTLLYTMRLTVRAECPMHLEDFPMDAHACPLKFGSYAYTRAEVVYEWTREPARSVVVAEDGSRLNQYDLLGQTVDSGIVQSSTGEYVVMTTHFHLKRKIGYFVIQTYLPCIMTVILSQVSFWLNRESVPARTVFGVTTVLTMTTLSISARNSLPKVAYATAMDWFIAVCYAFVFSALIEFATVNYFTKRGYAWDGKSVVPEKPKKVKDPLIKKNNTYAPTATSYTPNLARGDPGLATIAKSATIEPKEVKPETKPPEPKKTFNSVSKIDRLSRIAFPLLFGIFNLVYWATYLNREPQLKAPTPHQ
T2 sequence (P47870 25-512 limits assumed): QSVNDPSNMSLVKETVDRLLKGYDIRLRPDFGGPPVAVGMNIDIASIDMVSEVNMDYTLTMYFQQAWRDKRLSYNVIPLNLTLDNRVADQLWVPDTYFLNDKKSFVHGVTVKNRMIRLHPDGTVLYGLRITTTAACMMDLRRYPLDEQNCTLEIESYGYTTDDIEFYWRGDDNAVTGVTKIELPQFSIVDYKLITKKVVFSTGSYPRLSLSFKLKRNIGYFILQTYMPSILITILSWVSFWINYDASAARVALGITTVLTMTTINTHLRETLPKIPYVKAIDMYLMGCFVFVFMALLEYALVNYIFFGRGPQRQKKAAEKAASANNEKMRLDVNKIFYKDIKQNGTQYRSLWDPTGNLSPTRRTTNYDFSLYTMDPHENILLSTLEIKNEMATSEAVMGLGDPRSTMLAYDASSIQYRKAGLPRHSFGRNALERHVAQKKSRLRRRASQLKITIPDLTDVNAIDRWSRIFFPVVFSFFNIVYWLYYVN
T2 sequence (P18507 40-475): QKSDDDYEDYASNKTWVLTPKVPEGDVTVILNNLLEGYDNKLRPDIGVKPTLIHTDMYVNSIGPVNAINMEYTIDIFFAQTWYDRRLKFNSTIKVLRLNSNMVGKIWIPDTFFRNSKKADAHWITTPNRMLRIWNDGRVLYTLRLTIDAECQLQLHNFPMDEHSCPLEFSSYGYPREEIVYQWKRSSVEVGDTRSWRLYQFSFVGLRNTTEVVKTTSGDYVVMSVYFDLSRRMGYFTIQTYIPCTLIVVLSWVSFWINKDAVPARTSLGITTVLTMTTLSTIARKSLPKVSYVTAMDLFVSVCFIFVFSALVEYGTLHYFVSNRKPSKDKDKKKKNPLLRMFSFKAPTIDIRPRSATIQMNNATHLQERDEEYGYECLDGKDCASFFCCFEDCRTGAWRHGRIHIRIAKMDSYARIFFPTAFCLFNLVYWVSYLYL

α4β3δ GABAA receptor [3] = target: T1, α4β3δ GABAA receptor; set-up: expressed in transfected cells; host or cells: CHO cells, transiently transfected; conditions: 10 μM steroid, GABA 2 μM (EC20), CHO cells; cited from earlier work

## C[C@@]1(O)CC[C@@]2(C)[C@@H](CC[C@@H]3[C@@H]2CC[C@]2(C)[C@@H](C(=O)Cn4cc(C#N)cn4)CC[C@@H]32)C1 [CV-10155, 1-[2-[(3R,5S,8R,9S,10S,13S,14S,17S)-3-hydroxy-3,10,13-trimethyl-1,2,4,5,6,7,8,9,11,12,14,15,16,17-tetradecahydrocyclopenta[a]phenanthren-17-yl]-2-oxoethyl]pyrazole-4-carbonitrile]
GABAA receptor subtypes
  modulating activity across the GABAA receptor subtypes tested: some level of positive allosteric modulating activity in all of the GABAA receptor subtypes tested
α4β3δ GABAA receptor [1]
  preferential modulation of α4β3δ compared to α1β2γ2 GABAA receptors: preferentially modulate
α4β3δ GABAA receptor [1]; listed as Formula (I)
  preferential modulation of α4β3δ compared to α1β2γ2 GABAA receptors: substantially more active

## C[C@]1(O)CC[C@@]2(C)[C@@H](CC[C@@H]3[C@@H]2CC[C@]2(C)[C@@H](C(=O)Cn4cc(C#N)cn4)CC[C@@H]32)C1 [SPNC-019]
GABAA receptor subtypes
  modulating activity across the GABAA receptor subtypes tested: no modulating activity in 15 of the 18 GABAA receptor subtypes tested

## C[C@@]1(O)CC[C@@]2(C)[C@H](CC[C@@H]3[C@@H]2CC[C@]2(C)[C@@H](C(=O)Cn4cc(C#N)cn4)CC[C@@H]32)C1 [Compound 10]
[2]
  pIC50: > 8.00

## C[C@@]1(O)CC[C@@]2(C)[C@@H](CC[C@@H]3[C@@H]2CC[C@]2(C)[C@@H](C(=O)Cn4ccc(C#N)n4)CC[C@@H]32)C1 [Compound 121]
[2]
  pIC50: 7.30 to 8.00
α1β2γ2 GABAA receptors
  efficacy (relative potentiation of GABA-mediated conductance): > 500%
α4β3δ GABAA receptor [3]
  efficacy (relative potentiation of GABA-mediated conductance): > 500%
